Assay type in all cases: functional, cell-based
For one assay, the system named is Hep 3B2. As to the kind of experiment: Antiproliferative activity against human Hep3B cells after 24 to 72 hrs by MTT assay.
A further assay deals with SMMC-7721. As to the kind of experiment: Antiproliferative activity against human SMMC7721 cells after 24 to 72 hrs by MTT assay. Background: Tetrazolium assays rely on reduction of a dye to a coloured formazan, in cell work by metabolically active cells.
For a further assay, the system named is HL-60. As to the kind of experiment: Antiproliferative activity against human HL60 cells after 24 to 72 hrs by MTT assay.
A further assay deals with L1210. As to the kind of experiment: Antiproliferative activity against mouse L1210 cells after 24 to 72 hrs by MTT assay.

SMILES strings stand for the structures.

The IC50 is the concentration that inhibits the measured activity by half. A higher IC50 goes with weaker potency in that assay.

Consider `CCn1cc(-c2nnc(SCC(=O)N/N=C/c3ccccc3O)o2)c(=O)c2cc(F)c(N3CCN(C)CC3)cc21`, for which the IC50 in the assay on Hep 3B2, with SMMC-7721, in the assay on HL-60 and in the assay with L1210 was 1400 to 52300 nM throughout.
`CC1COc2c(N3CCN(C)CC3)c(F)cc3c(=O)c(-c4nnc(SCC(=O)N/N=C/c5ccc(F)cc5)[nH]4)cn1c23` (stereo not given): the IC50 with Hep 3B2, in the assay on SMMC-7721, in the assay with HL-60 and in the assay with L1210 was 1400 to 52300 nM in each case.
In the case of `CCn1cc(-c2nnc(SCC(=O)N/N=C/c3ccc(Cl)cc3)o2)c(=O)c2cc(F)c(N3CCN(C)CC3)cc21`, the IC50 in the assay on Hep 3B2, in the assay with SMMC-7721, in the assay on HL-60 and in the assay with L1210 was 1400 to 52300 nM in each case.
Consider `CC1COc2c(N3CCN(C)CC3)c(F)cc3c(=O)c(-c4nnc(SCC(=O)N/N=C/c5ccccc5)[nH]4)cn1c23` (stereo not given), for which the IC50 in the assay on Hep 3B2, with SMMC-7721, with HL-60 and in the assay with L1210 was 1400 to 52300 nM each time.
In the case of `CCn1cc(-c2nnc(SCC(=O)N/N=C/c3ccc(F)cc3)o2)c(=O)c2cc(F)c(N3CCN(C)CC3)cc21`, the IC50 in the assay with Hep 3B2, with SMMC-7721, with HL-60 and in the assay with L1210 was 1400 to 52300 nM throughout.
As for `CCn1cc(-c2nnc(SCC(=O)N/N=C/c3ccc(O)c(OC)c3)o2)c(=O)c2cc(F)c(N3CCN(C)CC3)cc21`, the IC50 with Hep 3B2, with SMMC-7721, with HL-60 and in the assay on L1210 was 1400 to 52300 nM throughout.
For the compound `CCn1cc(-c2nnc(SCC(=O)N/N=C/c3ccc4c(c3)OCO4)o2)c(=O)c2cc(F)c(N3CCN(C)CC3)cc21`, the IC50 in the assay with Hep 3B2, in the assay on SMMC-7721, in the assay on HL-60 and in the assay on L1210 was 1400 to 52300 nM throughout.
Regarding `CC1COc2c(N3CCN(C)CC3)c(F)cc3c(=O)c(-c4nnc(N/N=C/c5ccc(C(=O)O)cc5)[nH]4)cn1c23` (stereo not given), the IC50 with Hep 3B2 was 1400 to 52300 nM; in the assay with SMMC-7721 it was 1400 nM; with HL-60 it was 4200 nM; in the assay with L1210 it was 1600 nM.
Taken in the same sequence, the figures for `COc1ccc(/C=N/Nc2nnc(-c3cn4c5c(c(N6CCN(C)CC6)c(F)cc5c3=O)OCC4C)[nH]2)cc1` (stereo not given) were 1400 to 52300 nM, 1400 to 52300 nM, 1400 to 52300 nM and 1400 to 52300 nM.
As for `CCn1cc(-c2nnc(SCC(=O)N/N=C/c3ccccc3C(=O)O)o2)c(=O)c2cc(F)c(N3CCN(C)CC3)cc21`, the IC50 in the assay with Hep 3B2, in the assay on SMMC-7721, with HL-60 and in the assay on L1210 was 1400 to 52300 nM each time.
With `CCn1cc(C(=O)N/N=C/c2ccccc2OC)c(=O)c2cc(F)c(N3CCNCC3)cc21`, the IC50 in the assay with Hep 3B2, in the assay on SMMC-7721, in the assay on HL-60 and in the assay on L1210 was 1400 to 52300 nM throughout.
As to `CCn1cc(-c2nnc(SCC(=O)N/N=C/c3ccc(C(=O)O)cc3)o2)c(=O)c2cc(F)c(N3CCN(C)CC3)cc21`, the IC50 with Hep 3B2, with SMMC-7721, with HL-60 and in the assay with L1210 was 1400 to 52300 nM each time.
Regarding `CCn1cc(C(=O)N/N=C/c2ccc([N+](=O)[O-])cc2)c(=O)c2cc(F)c(N3CCNCC3)cc21`, the IC50 in the assay on Hep 3B2, in the assay with SMMC-7721, with HL-60 and in the assay on L1210 was 1400 to 52300 nM each time.
Take `CC1COc2c(N3CCN(C)CC3)c(F)cc3c(=O)c(-c4nnc(N/N=C/c5ccc(F)cc5)[nH]4)cn1c23` (stereo not given): the IC50 in the assay on Hep 3B2, in the assay on SMMC-7721, in the assay with HL-60 and in the assay with L1210 was 1400 to 52300 nM each time.
For the compound `CCn1cc(-c2nnc(SCC(=O)N/N=C/c3ccccc3OC)o2)c(=O)c2cc(F)c(N3CCN(C)CC3)cc21`, the IC50 with Hep 3B2, in the assay on SMMC-7721, with HL-60 and in the assay on L1210 was 1400 to 52300 nM throughout.

The record behind these values is ChEMBL document CHEMBL4613209, “Quinolone hybrids and their anti-cancer activities: An overview” (Eur J Med Chem, 2019).
